Measurements from patent US20110098323A1, “INHIBITORS OF BACTERIAL BIOFILM FORMATION” (MICROBIOTIX, INC., priority 2009, published 2011).
Like-named read-outs stand apart in the source and are kept apart here.

Tests used:
Experiment in all cases: MBIC/MIC secondary assay
[1] = tested on: S. aureus strain NRS-77; type: cell-based, Staphylococcus aureus; details: for MIC: Staphylococcus aureus, NRS77
Procedure: (§1) Assays for detecting and measuring bacterial biofilm formation are known in the art. An example of a biofilm formation assay useful in detecting and characterizing biofilm inhibitor compounds is described in Example 1, infra. Briefly, bacterial cells are inoculated into growth medium in individual wells of a 96-well assay plate in the presence or absence of a compound (known biofilm inhibitor or test compound). After incubation for a specified time, growth medium and non-biofilm bacterial cells are removed from each of the wells. The bacterial cells in any biofilms that are adhered to the surface of a well are fixed by addition of ethanol. The ethanol is removed, and the fixed biofilm bacteria cells are stained with crystal violet (CV). The intensity of CV staining is directly correlated with bacterial biofilm formation and is measured in the wells by reading the optical density at 600 nm (OD600). The difference in biofilm formation between untreated control and treated cultures provides an indication of relative biofilm inhibition activity (anti-biofilm activity). Use of different concentrations of an inhibitor in multiple and otherwise duplicate cultures permits determination of a compound's Minimal Biofilm Inhibitory Concentration (MBIC), which is defined herein as the lowest concentration of a compound that inhibits biofilm formation by at least 80% (i.e., ≧80%) compared to untreated control cultures. […]
(§2) A secondary assay provided a quantitative measure of both anti-biofilm activity and antibacterial activity in terms of the Minimal Biofilm Inhibitory Concentration (MBIC) and the Minimal Inhibitory Concentration (MIC), respectively. The MBIC and MIC are defined as the lowest compound concentrations that inhibit biofilm formation and bacterial growth, respectively, by at least 80% (i.e., ≧80%). The MBIC/MIC assay is formatted in a manner that is similar to the Microbroth dilution assays described by the Clinical and Laboratory Standards Institute (CLSI; formerly NCCLS) in protocol M7-A7. The growth conditions were optimized for biofilm growth in 96-well assay plates such that the resulting CV staining was within the linear range of detection. Therefore, the MBIC/MIC assay provided a stringent measure of anti-biofilm activity.
(§3) The assay was adapted for several biofilm-forming strains of S. epidermidis, S. aureus, Enterococcus faecalis, and Pseudomonas aeruginosa. Briefly, 96-well assay plates contained a two-fold dilution series for up to 8 compounds (one compound/row) and untreated controls (concentration range of 0.2 μM-100 μM). The assay plates were inoculated with the test bacterial species, e.g., S. epidermidis 18972 (0.5×TSB, 0.25% glucose) or S. aureus ATCC 35556 (0.5×TSB, 1% glucose). The inocula were prepared by diluting an overnight culture 1:100 in fresh media, which corresponds to approximately 5×10^6 cells/well. After inoculation, the assay plates were sealed with foil tape and incubated for 18 h-20 h at 37° C. The assay plates were processed, and the percent inhibition of growth (% INH-Growth) and percent inhibition of biofilm formation (% INH-Biofilm) were calculated as described above. […] Compounds with an MBIC≦10 μM and an MIC/MBIC ratio≧8 for either S. epidermidis or S. aureus were designated as validated hits.
Minimal Biofilm Inhibitory Concentration (MBIC) and Minimal Inhibitory Concentration (MIC) of the compounds in Table 3 were determined against various strains of biofilm-forming bacteria.

[2] = tested on: vancomycin-resistant Enterococcus faecalis strain (ATCC 51299); type: cell-based; details: for MIC: Enterococcus faecalis, ATCC51299
Procedure: as §1, §2, §3
(§4) Compounds were also tested for anti-biofilm activity against a strain of biofilm-forming, vancomycin-resistant Enterococcus faecalis strain (ATCC 51299), the Gram-negative biofilm-forming opportunistic pathogen Pseudomonas aeruginosa PAO1 ([…]), and a Gram-negative, biofilm-forming strain of Escherichia coli (ATCC 25922).

[3] = tested on: Escherichia coli (ATCC 25922); type: cell-based; details: for MIC: Escherichia coli, ATCC25922
Procedure: as §1, §2, §3, §4

SMILES	MBIC ([1]; S. aureus strain NRS-77) [µM]	MIC [1] [µM]	MBIC ([2]; E. faecalis strain 51299) [µM]	MIC [2] [µM]	MBIC ([3]; E. coli strain 25922)	MIC [3] [µM]	MIC ([1]; S. aureus strain NRS-77, read-out: MIC) [µM]	MIC ([2]; E. faecalis strain 51299, read-out: MIC) [µM]	MIC ([3]; E. coli strain 25922, read-out: MIC) [µM]
CCOc1cc(/C=C2\SC(=S)N(c3ccc(F)nc3)C2=O)ccc1O [Compound 40, 3-(6-fluoropyridin-3-yl)-5-(3-ethoxy-4-hydroxybenzylidene)-2-thioxothiazolidin-4-one]	6.3	≥ 100	6.3	≥ 100	≧100 μM	≥ 100	–	–	–
CCOc1cc(/C=C2\SC(=S)N(c3cccc(C#N)c3)C2=O)ccc1O [Compound 34, 3-(3-cyanophenyl)-5-(3-ethoxy-4-hydroxybenzylidene)-2-thioxothiazolidin-4-one]	12.5	≥ 100	12.5	≥ 100	≧100 μM	≥ 100	–	–	–
CCOc1cc(/C=C2\SC(=S)N(c3cccc(F)c3)C2=O)ccc1O [Compound 8, 3-(3-fluorophenyl)-5-(3-ethoxy-4-hydroxybenzylidene)-2-thioxothiazolidin-4-one]	25	≥ 100	25	≥ 100	≧100 μM	≥ 100	–	–	–
CCOc1cc(/C=C2\SC(=S)N(c3ccc(F)cc3)C2=O)ccc1O [Compound 4, 3-(4-fluorophenyl)-5-(3-ethoxy-4-hydroxybenzylidene)-2-thioxothiazolidin-4-one]	25	≥ 100	12.5	≥ 100	≧100 μM	≥ 100	–	–	–
C=CCOc1cc(/C=C2\SC(=S)N(c3ccc(F)cc3)C2=O)ccc1O [Compound 29, 3-(4-fluorophenyl)-5-(3-allyloxy-4-hydroxybenzylidene)-2-thioxothiazolidin-4-one]	12.5	–	12.5	–	≧100 μM	–	≥ 100	≥ 100	≥ 100
CCOc1cc(/C=C2\SC(=S)N(c3cccnc3)C2=O)ccc1O [Compound 36, 3-(pyridin-3-yl)-5-(3-ethoxy-4-hydroxybenzylidene)-2-thioxothiazolidin-4-one]	12.5	≥ 100	12.5	≥ 100	≧100 μM	≥ 100	–	–	–
